Non-standard residues stand in square brackets, D forms with d. Residues, ends and D or L forms follow the SMILES beside them. *: point of attachment. Sta = CC(C)C[C@H](N)[C@@H](O)CC(=O)O; Isovaleryl = CC(C)CC(=O)*

Assay [1] addresses T1, human renin (Homo sapiens, UniProt P00797).
T1 construct: purchased National Institute for Biological Standards, London
T1 sequence (P00797 67-406): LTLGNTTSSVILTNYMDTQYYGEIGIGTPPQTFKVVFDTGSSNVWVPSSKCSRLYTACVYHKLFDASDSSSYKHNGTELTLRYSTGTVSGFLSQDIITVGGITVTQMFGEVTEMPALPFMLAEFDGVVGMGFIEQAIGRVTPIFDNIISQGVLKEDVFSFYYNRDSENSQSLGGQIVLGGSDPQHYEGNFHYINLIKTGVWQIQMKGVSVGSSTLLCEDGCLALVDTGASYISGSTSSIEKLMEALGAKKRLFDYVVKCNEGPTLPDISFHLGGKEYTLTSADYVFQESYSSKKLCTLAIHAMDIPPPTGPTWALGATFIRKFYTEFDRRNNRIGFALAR
The assay is described as follows: Human Renin Inhibition in vitro. Type of assay: biochemical. Conditions: pH 7.4, 37° C., two hours, human plasma, angiotensin I by radioimmunoassay. The protocol:
Compounds of Formula I were evaluated as inhibitors of human renin in an vitro assay, as follows: This human renin inhibition test has been previously described in detail [Papaioannou et al., Clinical and Experimental Hypertension, A7 (9), 1243-1257 (1985)]. Human renin was obtained from the National Institute for Biological Standards, London. An incubation mixture was prepared containing the following components: in a total volume of 0.25 mL: 100 mM Tris-acetate buffer at pH 7.4, 25×10^-6 Goldblatt units of renin, 0.05 mL of plasma from human volunteers taking oral contraceptives, 6.0 mM Na-EDTA, 2.4 mM phenylmethyl sulfonyl fluoride, 1.5 mM 8-hydroxyquinoline, 0.4 mg/mL bovine serum albumin (BSA), and 0.024 mg/mL neomycin sulfate. This mixture was incubated for two hours at 37° C. in the presence or absence of renin inhibitors. The produced angiotensin I was determined by radioimmunoassay (New England Nuclear kit). Test compounds to be assayed were dissolved in DMSO and diluted with 100 mM Tris-acetate buffer at pH 7.4 containing 0.5% BSA to the appropriate concentration. The final concentration of organic solvent in the reaction mixture was less than 1%. Control incubations at 37° C. were used to correct for effects of organic solvent on renin activity.

In assay [2] the test system is cathepsin D. Conditions: Umezawa et al, J. Antibiot. (Tokyo), 23, 259-262 (1970); cited from earlier work.
Assay [3] concerns pepsin. Conditions: Umezawa et al, J. Antibiot. (Tokyo), 23, 259-262 (1970); cited from earlier work.
Assay [4] deals with renin. To be noted: Umezawa et al, J. Antibiot. (Tokyo), 23, 259-262 (1970); cited from earlier work.
The test system of assay [5] is hog renin. Conditions: after the injection of hog renin into nephrectomized rats; Gross et al, Science, 175, 656 (1971); cited from earlier work.

A word on the IC50: it is the concentration needed to halve the response being measured. A low value points to higher potency. For the compound `C#CC[C@H](NC(=O)C(Cc1ccccc1)CS(=O)(=O)C(C)(C)C)C(=O)N[C@@H](CC1CCCCC1)[C@@H](O)[C@@H](O)CC(C)C` (stereo partly drawn) [Example 1, N-[[1R*-[[1S,1R*(cyclohexylmethyl)-2S*,3R*-dihydroxy-5-methylhexyl]amino]carbonyl]-3-butynyl]-α-[[(1,1-dimethylethyl)sulfonyl]methyl]benzenepropanamide], the IC50 in assay [1] worked out at 0.23 nM.

As to `CC(C)CC(=O)N[C@H](C(=O)N[C@H](C(=O)N[C@@H](CC(C)C)[C@@H](O)CC(=O)N[C@@H](C)C(=O)N[C@@H](CC(C)C)[C@@H](O)CC(=O)O)C(C)C)C(C)C` [pepstatin] (Isovaleryl-VV[Sta]A[Sta]-OH), in assay [2], the “inhibitor of cathepsin D” value is “inhibitor”. The inhibitor of pepsin entry in assay [3] was “inhibitor”. Moreover, the inhibitor of renin result in assay [4] is “inhibitor”. In addition, the “blood pressure in vivo” value in assay [5] is listed as “reduce blood pressure”.

Take `C#CC[C@H](NC(=O)[C@H](Cc1ccccc1)CS(=O)(=O)C(C)(C)C)C(=O)N[C@@H](CC1CCCCC1)[C@@H](O)[C@@H](O)CC(C)C` [Example 2, N-[[1R*-[[1S,1R*(cyclohexylmethyl)-2S*,3R*-dihydroxy-5-methylhexyl]amino]carbonyl]-3-butynyl]-αR*-[[(1,1-dimethylethyl)sulfonyl]methyl]benzenepropanamide]: the IC50 in assay [1] turned out to be 0.17 nM.

As a reminder, the inhibition is the relative decrease from the control value, in per cent. Low values mean a response near the control, high ones a response far below the control. On to `C#CC[C@H](NC(=O)CCS(=O)(=O)c1ccccc1)C(=O)N[C@@H](CC1CCCCC1)[C@@H](O)[C@@H](O)CC(C)C` [Example 3, N-[1S,1R*(cyclohexylmethyl)-2S*,3R*-dihydroxy-5-methylhexyl]-2R*-[[1-oxo-3-[phenylsulfonyl]propyl]amino]-4-pentynamide], for which, in assay [1] (@ 100 nM), the inhibition at 0.1 µM amounted to 34%.

Values taken from patent US5314920A, “Ethynyl-alanine aryl/alkylsulfonyl-terminated amino-diol compounds for treatment of hypertension” (G. D. Searle & Co., priority 1992, dated 1994).
